In publication PMC12567248 (Pharmaceutics, 2025):
Where two headings read alike, the source gives them in different places.

Experiments:
[1] = rabbits, printed as administered intravenously; cited from earlier work
Male Sprague Dawley Rats = experiment: Acute oral toxicity, OECD procedure 423; details: rat, in vivo
Protocol: Acute oral toxicity was analyzed in accordance with the OECD guidelines for testing chemical compounds using the acute toxic class method (OECD procedure 423). Prior to dosing, 1 mL of the blood was extracted from the test animals (Male Sprague Dawley Rats, 200–250 g) using the tail vein method and was submitted for alanine aminotransferase (ALT), aspartate aminotransferase (AST), and blood urea nitrogen (BUN), and creatinine level determinations for signs of liver and kidney damages, respectively. […] Since no test animals were recorded to show any signs of toxicity or death, an additional three test animals were given the same dose. […] After the 14 days of observation, the test animals were sedated using Zoletil 50 (50 mg tiletamine base, 50 mg zolazepam base, and 57.7 mg mannitol per mL) at a dose of 50 mg kg^−1 prior to blood extraction using the cardiac puncture method. The animals were euthanized using a carbon dioxide chamber. The blood samples were analyzed for liver and kidney functions. The major organs, such as the liver and kidneys of the test animals, were harvested for tissue mounting and histopathological analysis.

[2] = cited from earlier work
[3] = In vitro drug release study, sample and separation method, with release model fitting; format: physicochemical; details: 37.5 °C
Protocol: The release media used were ultrapure water, 0.1 N phosphate-buffered saline (PBS) pH 7.4 for simulated blood pH, PBS pH 6.8 for simulated intestinal fluid, and 0.1 N HCl pH 2.0 for simulated gastric fluid. […] The setup was stirred at 75 rpm at 37.5 ± 0.5 °C. […] A fresh amount of the media was used to compensate for the amount of the release media taken at every time point. The aliquots were centrifuged at 5000 rpm for 10 min. The supernatant liquid was stored for syringic acid quantification using HPLC analysis, while the pellets were returned to the setup. The cumulative amount of syringic acid released from the MIL-100(Fe) was utilized to predict and correlate the behavior of the in vitro release. The experimental data were fitted to five predictable models: zero-order, first-order, Higuchi, Korsmeyer–Peppas, and Hixson–Crowell models. Data fitting was performed by linear regression using Microsoft Excel. The correlation coefficient (r^2) was utilized as a criterion for selecting the best model that describes the release profile in the three media. An r^2 value close to 1 signifies the best correlation.

[4] = Oral and intraperitoneal bioavailability, syringic acid in blood; format: in vivo, Sprague Dawley rats; details: Sprague Dawley, rat, serum; for AUC(0-t): read-out: AUC0–72 (converted)
Protocol: (§1) The reduction in the dosing for the intraperitoneal route is to prevent abdominal distress in the test animal post-administration.
After the given time points, the test animals were sedated using Zoletil 50 (50 mg tiletamine base, 50 mg zolazepam base, and 57.7 mg mannitol per mL) at a dose of […] before blood extraction using the cardiac puncture method. The blood was allowed to clot and centrifuged at 4000 rpm at 4 °C for 5 min to obtain the serum. The sera were mixed with an equal amount of methanol to precipitate proteins and centrifuged again to obtain the deproteinized sera. The procedure was repeated until no precipitation with methanol occurred. The protein-free sera were dried under reduced pressure for prior analysis using HPLC.
(§2) Samples were prepared using the mobile phase consisting of 80:20 water with 0.1% acetic acid: methanol. HPLC analysis was performed using a linear gradient elution at a flow rate of 1.0 mL min^−1. The gradient program started at 80:20 (water with 0.1% acetic acid: methanol) and linearly progressed to 40:60 over 10 min. The column oven temperature was maintained at 30 °C. Detection was carried out using a PDA detector set at 218 nm.

[5] = Tissue distribution of syringic acid in liver and kidney; format: in vivo, Sprague Dawley rats; details: for Cmax / Tmax / half-life: Sprague Dawley, rat; for AUC0–72 / AUC0–∞: 100 mg kg^−1 syringic acid or equivalent amount in SYA@MIL-100(Fe)
Protocol: as §1
After the blood collection from the test animals, the animals were euthanized, and the organs, such as the liver and kidneys, were taken. The organs were pat-dried and weighed to determine the amount of NSS to be used for homogenization (1 mL of NSS per 700 mg of organ). The organs were homogenized and mixed with equal amounts of absolute ethanol. The mixture was centrifuged at 5000 rpm for 10 min. The serum samples were supplemented with an equal amount of absolute ethanol to facilitate the precipitation of proteins. This procedure was performed until no precipitation occurred. The supernatant was allowed to dry under reduced pressure before HPLC analysis.
as §2

- cumulative release of syringic acid ([3]; 0.1 N HCl, after 30 h): 110.99%
- cumulative release of syringic acid ([3]; PBS pH 6.8, after 30 h): 110.93%
- cumulative release of syringic acid ([3]; PBS pH 7.4, after 30 h): 117.55%
- cumulative release of syringic acid ([3]; water, after 30 h): 94.67%
- Tmax ([4]; ip, 25 mg kg^−1): 0.933 h
- half-life ([4]; ip, 25 mg kg^−1): 16.7 ± 6.83 h
- AUC(0-t) ([4]; ip, 25 mg kg^−1): 72800 ng·h/mL
- half-life ([4]; po, 100 mg/kg): 1.98 ± 0.513 h
- AUC(0-t) ([4]; po, 100 mg/kg): 23600 ng·h/mL
- Cmax ([5]; 100 mg kg^−1, kidney, oral, read-out: maximum concentration (Cmax)): 105000 ± 9790 ng/g
- Cmax ([5]; 100 mg kg^−1, liver, oral): 163000 ng/g
- Cmax ([5]; ip, 25 mg kg^−1, kidney, intraperitoneal, read-out: Cmax): 218000 ± 8730 ng/g
- Cmax ([5]; ip, 25 mg kg^−1, liver, intraperitoneal, read-out: Cmax): 40100 ± 560 ng/g
- Tmax ([5]; kidney, ip, 25 mg kg^−1): 0.402 h
- half-life ([5]; kidney, ip, 25 mg kg^−1): 80.1 ± 54.5 h
- Tmax ([5]; kidney, po, 100 mg/kg): 0.47 h
- half-life ([5]; kidney, po, 100 mg/kg): 0.626 ± 0.0782 h
- Cmax ([5]; kidney, po, 100 mg/kg, read-out: Cmax): 105000 ± 9790 ng/g
- Tmax ([5]; liver, ip, 25 mg kg^−1): 0.412 h
- half-life ([5]; liver, ip, 25 mg kg^−1): 30.9 ± 18.4 h
- Tmax ([5]; liver, po, 100 mg/kg): 8.6 h
- half-life ([5]; liver, po, 100 mg/kg): 38.1 ± 13.5 h
- Cmax ([5]; liver, po, 100 mg/kg, read-out: Cmax): 16300 ± 3540 ng/g
- AUC0–72 ([5]; kidney, oral): 77,103.33 ± 2531.03 μg min g^−1
- AUC0–∞ ([5]; kidney, oral): 78,035.27 ± 2458.81 μg min g^−1
- AUC0–72 ([5]; liver, oral): 32,000.33 ± 3544.16 μg min g^−1
- AUC0–∞ ([5]; liver, oral): 47,401.91 ± 8515.77 μg min g^−1
Compound: COc1cc(C(=O)O)cc(OC)c1O [Syringic Acid, 3,5-Dimethoxy-4-hydroxybenzoic acid]
- absolute bioavailability [1]: 86.27%
- BUN before administration (Male Sprague Dawley Rats): 14.71 ± 0.51 mg per dL
- SGOT before administration (Male Sprague Dawley Rats): 337.30 ± 34.87 units per liter
- SGPT before administration (Male Sprague Dawley Rats): 87.96 ± 14.9 units per liter
- serum creatinine before administration (Male Sprague Dawley Rats): 0.58 ± 0.01 mg per dL
- Cmax [2]: 4500 ± 40 ng/mL
- Tmax [2]: 8 min
- area under the curve [2]: 2010 ± 48.7 ng·h/mL
